Reference: US10258036B2, “Extract of Euodia suaveolens Scheff, repellent compositions and use thereof” (CHARABOT, priority 2009, dated 2019)

Assays:
[1] = in vivo; cited from earlier work
[2] = test system: Aedes aegypti; conditions: DEET at a dose of 23.8 percent, laboratory; cited from earlier work
[3] = test system: mosquitoes; conditions: cited from earlier work
[4] = test system: Aedes aegypti; assay: Repellent efficacy test on hairless mouse coated with test product, exposed to female mosquitoes; assay type: in vivo; conditions: concentration of 3% or even less of synthetic evodone
Method: In this respect, the invention is illustrated by the following efficacy tests, carried out in the laboratory, where the formulas are not degraded through the effects of abrasion, exudation, sunlight, temperature or even swimming in the sea. […] The tests are carried out on female Aedes aegypti mosquitoes aged 6 to 10 days having undergone a prior 24-hour period of fasting (no blood meal) in order to increase their aggressiveness. […] 30 minutes after product application, the mouse is introduced into a cage containing approximately 200 female mosquitoes (prior removal of the males using a food gradient). The test lasts 5 minutes and during this period the number of mosquitoes having landed on the mouse (“landing” effect: number of mosquitoes that land on the treated area and leave without biting) and the number of effective bites, are recorded. The test is stopped after 5 effective bites (“stop” in the Tables below). […] Based on the outcome of the first repetition, repetitions are performed at time intervals of 30 minutes in order to provide a more accurate limit for the duration of protection. During and between the runs, the mice are maintained in a “tropical” like atmosphere under controlled conditions at 27+/−1° C. and 70+/−5% relative humidity. The cages are changed upon each unit test and placed 3 meters apart. […]

CCN(CC)C(=O)c1cccc(C)c1 [DEET, N,N-diethyl-3-methylbenzamide]
share of a dose absorbed through the skin [1]: 30%
protection period [2]: more than 5 hours

CCC(C)OC(=O)N1CCCCC1CCO (centres unmarked) [icaridin, 1-methylpropylester]
concentration with efficacy comparable to that of 30% DEET [3]: 19.2%

p menthane 3.8 diol [citriodiol]
maximum persistence of protection [3]: ≤ 6 h

Cc1coc2c1C(=O)C[C@@H](C)C2 [evodone, (6S)3-6 dimethyl 6,7 dihydro 5H benzofuran-4-one]
repellent efficacy compared with DEET [4]: as effective as a concentration of 30% of DEET
